Assay results from US10865216B2, “Tricyclic Gyrase inhibitors” (MERCK SHARP & DOHME CORP., priority 2012, dated 2020).
In brackets after ≈: the same amount, converted by molar mass.

Experiments:
S. aureus ATCC 13709 = experiment: MIC, S. aureus ATCC 13709; assay type: cell-based; details: Table 18, Sa
E. coli ATCC 25922 = experiment: MIC, E. coli ATCC 25922; assay type: cell-based; details: Table 18, Ec

MIC Sa (S. aureus ATCC 13709)	MIC Ec (E. coli ATCC 25922)	SMILES
≤ 0.5 mg/L	≤ 0.5 mg/L	CNc1cc(F)cc2c1[nH]c1nc(Oc3cnc4scnc4c3)nc(N3C[C@H]4C[C@@H]3C[C@H]4N)c12 [Compound 10.34]
≤ 0.5 mg/L	≤ 0.5 mg/L	CNc1cc(F)cc2c1[nH]c1nc(Sc3nc4cccnc4[nH]3)nc(N3C[C@H]4C[C@@H]3C[C@H]4N)c12 [Compound 10.38]
≤ 0.5 mg/L	≤ 0.5 mg/L	CNc1cc(F)cc2c1[nH]c1nc(Nc3cnc(C)nc3)nc(N3C[C@H]4C[C@@H]3C[C@H]4N)c12 [Compound 10.41]
≤ 0.5 mg/L	1 mg/L (≈ 2.01 µM)	CCOC(=O)c1csc(Nc2nc(N3C[C@H]4C[C@@H]3C[C@H]4N)c3c(n2)[nH]c2c(NC)cc(F)cc23)n1 [Compound 10.42]
≤ 0.5 mg/L	1 mg/L (≈ 1.99 µM)	CNc1cc(F)cc2c1[nH]c1nc(Nc3cnc4c(c3)nnn4C(C)C)nc(N3C[C@H]4C[C@@H]3C[C@H]4N)c12 [Compound 10.43]
≤ 0.5 mg/L	≤ 0.5 mg/L	CNc1cc(F)cc2c1[nH]c1nc(Nc3cccnc3)nc(N3C[C@H]4C[C@@H]3C[C@H]4N)c12 [Compound 10.44]
≤ 0.5 mg/L	≤ 0.5 mg/L	CNc1cc(F)cc2c1[nH]c1nc(Nc3cnc4ccnn4c3)nc(N3C[C@H]4C[C@@H]3C[C@H]4N)c12 [Compound 10.45]
≤ 0.5 mg/L	≤ 0.5 mg/L	CNc1cc(F)cc2c1[nH]c1nc(Nc3cnn4ccnc4c3)nc(N3C[C@H]4C[C@@H]3C[C@H]4N)c12 [Compound 10.46]
1 mg/L (≈ 2.38 µM)	8 mg/L (≈ 19 µM)	CNc1cc(F)cc2c1[nH]c1nc(Cc3cnn(C)c3)nc(N3C[C@H]4C[C@@H]3C[C@H]4N)c12 [Compound 10.47]
8 mg/L (≈ 18.5 µM)	16 mg/L (≈ 37 µM)	CNc1cc(F)cc2c1[nH]c1nc(NCc3cccnc3)nc(N3C[C@H]4C[C@@H]3C[C@H]4N)c12 [Compound 10.48]
≤ 0.5 mg/L	2 mg/L (≈ 4.45 µM)	CNc1cc(F)cc2c1[nH]c1nc(SCc3cccnc3)nc(N3C[C@H]4C[C@@H]3C[C@H]4N)c12 [Compound 10.49]
≤ 0.5 mg/L	≤ 0.5 mg/L	CNc1cc(F)cc2c1[nH]c1nc(Oc3ccc4ccnn4c3)nc(N3C[C@H]4C[C@@H]3C[C@H]4N)c12 [Compound 10.50]
4 mg/L (≈ 9.25 µM)	16 mg/L (≈ 37 µM)	CNc1cc(F)cc2c1[nH]c1nc(NCc3cccnc3)nc(N3C[C@H]4C[C@@H]3C[C@H]4N)c12 [Compound 10.51]

Second part, the compound before the results:

SMILES	MIC Sa (S. aureus ATCC 13709)	MIC Ec (E. coli ATCC 25922)
CNc1cc(F)c(F)c2c1[nH]c1nc(Oc3cnc([C@@H](C)O)nc3)nc(N3CC4NCC[C@@H]4C3)c12 (some centres unmarked) [Compound 10.31]	≤ 0.5 mg/L	≤ 0.5 mg/L
CNc1cc(F)c(F)c2c1[nH]c1nc(Oc3cnc(C)nc3)nc(N3CC4NCC[C@@H]4C3)c12 (some centres unmarked) [Compound 10.32]	≤ 0.5 mg/L	≤ 0.5 mg/L
CNc1cc(Cl)cc2c1[nH]c1nc(Oc3cnc(C(C)O)nc3)nc(N3C[C@H]4C[C@@H]3C[C@H]4N)c12 (some centres unmarked) [Compound 10.33]	≤ 0.5 mg/L	≤ 0.5 mg/L
CNc1cc(F)cc2c1[nH]c1nc(Oc3cnc4c(F)cnn4c3)nc(N3C[C@H]4C[C@@H]3C[C@H]4N)c12 [Compound 10.35]	≤ 0.5 mg/L	≤ 0.5 mg/L
CNc1cc(F)cc2c1[nH]c1nc(Oc3cnc4cc(C5CC5)nn4c3)nc(N3C[C@H]4C[C@@H]3C[C@H]4N)c12 [Compound 10.36]	≤ 0.5 mg/L	≤ 0.5 mg/L
CNc1cc(Cl)cc2c1[nH]c1nc(Oc3cnc4ccnn4c3)nc(N3C[C@H]4C[C@@H]3C[C@H]4N)c12 [Compound 10.37]	≤ 0.5 mg/L	≤ 0.5 mg/L
CNc1cc(F)cc2c1[nH]c1nc(Oc3cnc4c(C)cnn4c3)nc(N3CC4C(N)C4C3)c12 (centres unmarked) [Compound 10.40]	≤ 0.5 mg/L	≤ 0.5 mg/L
CNc1cc(F)cc2c1[nH]c1nc(Oc3ccc4ccnn4c3)nc(N3C[C@H]4CCN[C@H]4C3)c12 [Compound 10.52]	≤ 0.5 mg/L	≤ 0.5 mg/L
CNc1cc(F)cc2c1[nH]c1nc(Oc3ccc4ccnn4c3)nc(N3C[C@H]4C[C@@H](N)[C@H]4C3)c12 [Compound 10.53]	≤ 0.5 mg/L	≤ 0.5 mg/L
